{"source": "patent US20100279990A1", "about": "“ANTIPROLIFERATIVE COMPOUNDS, COMPOSITIONS AND METHODS OF USE” (RAMOT AT TEL-AVIV UNIVERSITY LTD., priority 2006, published 2010)", "key": {"[1]": {"tested_on": "CEM/C1 cell-lines (camptothecin resistant human T-cell leukemia)", "assay": "Viability of CEM/C1 cell-line, alamar blue", "format": "cell-based", "details": "1-30 μM", "excerpt": "This cell-line is a camptothecin (CPT) resistant derivative of the human T-cell leukemia purchased from ATCC (USA). […] The results are depicted in FIG. 14. Each point represents the mean+/−SEM of 4 determinations."}, "CNXF 498NL": {"tested_on": "CNXF 498NL", "assay": "Monolayer Assay, PI: CNXF 498NL", "format": "cell-based, human", "excerpt": "(§1) This example illustrates cell proliferation data in the form of IC50, IC70 and IC90 values obtained by exposure of human cancer cell-lines to compound (Ia). […]."}, "CXF HCT116": {"tested_on": "CXF HCT116", "assay": "Monolayer Assay, PI: CXF HCT116 (Colorectal)", "format": "cell-based, human", "excerpt": "as §1"}}}
{"smiles": "CN[C@H]1CC[C@@H](c2ccc(Cl)c(Cl)c2)c2ccc(C#CCCCO)cc21", "note": "[compound (Ia), (1S-cis)-4-(3,4-dichlorophenyl)-7-(5-hydroxy-1-pentyn-1-yl)-1,2,3,4-tetrahydro-N-methyl-1-naphthalenamine hydroiodide]", "values": [{"measurement": "IC50", "setting": "[1]", "value": 8.9, "unit": "µM"}, {"measurement": "Test/Control (%)", "setting": "CNXF 498NL; 2.3 μg/ml", "value": 101, "unit": "%"}, {"measurement": "Test/Control activity class", "setting": "CNXF 498NL; 2.3 μg/ml", "value": "− (− (T/C = 50))"}, {"measurement": "Test/Control (%)", "setting": "CNXF 498NL; 7.5 μg/ml", "value": 5, "unit": "%"}, {"measurement": "Test/Control activity class", "setting": "CNXF 498NL; 7.5 μg/ml", "value": "+++ (+++ (T/C < 10))"}, {"measurement": "Test/Control (%)", "setting": "CNXF 498NL; 23. μg/ml", "value": 3, "unit": "%"}, {"measurement": "Test/Control activity class", "setting": "CNXF 498NL; 23. μg/ml", "value": "+++ (+++ (T/C < 10))"}, {"measurement": "Test/Control (%)", "setting": "CNXF 498NL; 75. μg/ml", "value": 1, "unit": "%"}, {"measurement": "Test/Control activity class", "setting": "CNXF 498NL; 75. μg/ml", "value": "+++ (+++ (T/C < 10))"}, {"measurement": "Test/Control (%)", "setting": "CNXF 498NL; .75 μg/ml", "value": 97, "unit": "%"}, {"measurement": "Test/Control activity class", "setting": "CNXF 498NL; .75 μg/ml", "value": "− (− (T/C = 50))"}, {"measurement": "Test/Control (%)", "setting": "CXF HCT116; 2.3 μg/ml", "value": 93, "unit": "%"}, {"measurement": "Test/Control activity class", "setting": "CXF HCT116; 2.3 μg/ml", "value": "− (− (T/C = 50))"}, {"measurement": "Test/Control (%)", "setting": "CXF HCT116; 7.5 μg/ml", "value": 4, "unit": "%"}, {"measurement": "Test/Control activity class", "setting": "CXF HCT116; 7.5 μg/ml", "value": "+++ (+++ (T/C < 10))"}, {"measurement": "Test/Control (%)", "setting": "CXF HCT116; 23. μg/ml", "value": 2, "unit": "%"}, {"measurement": "Test/Control activity class", "setting": "CXF HCT116; 23. μg/ml", "value": "+++ (+++ (T/C < 10))"}, {"measurement": "Test/Control (%)", "setting": "CXF HCT116; 75. μg/ml", "value": 1, "unit": "%"}, {"measurement": "Test/Control activity class", "setting": "CXF HCT116; 75. μg/ml", "value": "+++ (+++ (T/C < 10))"}, {"measurement": "Test/Control (%)", "setting": "CXF HCT116; .75 μg/ml", "value": 99, "unit": "%"}, {"measurement": "Test/Control activity class", "setting": "CXF HCT116; .75 μg/ml", "value": "− (− (T/C = 50))"}]}
